In ChEMBL document CHEMBL1795343, “SAR of 2-amino and 2,4-diamino pyrimidines with in vivo efficacy against Trypanosoma brucei” (Bioorg Med Chem Lett, 2011):
Converted amounts (≈) assume the structure as drawn.

Key:
[1] = system: Trypanosoma brucei brucei; test: Antitrypanosomal activity against Trypanosoma brucei brucei; type: functional, organism-based
MDCK [2] = test: Absorption quotient of the compound across MDCK cells expressing human MDR1; type: ADME, cell-based, Canis lupus familiaris; details: dog
[3] = system: Trypanosoma brucei brucei; test: Antitrypanosomal activity against Trypanosoma brucei brucei in nonCNS acute HAT mouse model assessed as cure rate; type: functional
MDR1 (P-gp) = test: Apparent permeability of the compound across MDCK cells expressing human MDR1 in absence of P-gp inhibitor GF120918; type: ADME, cell-based, Canis lupus familiaris; details: dog
[4] = Aqueous solubility of the compound; type: physicochemical; details: buffer
L929 = test: Cytotoxicity against mouse L929 cells; type: cell-based
[5] = Half life in S9 microsomes; type: ADME, subcellular, S9 fraction
[6] = system: Trypanosoma brucei brucei; test: Antitrypanosomal activity against Trypanosoma brucei brucei infected in nonCNS acute HAT mouse model assessed as cure rate at 20 mg/kg, po administered after 30 days; type: functional
[7] = system: Trypanosoma brucei brucei; test: Antitrypanosomal activity against Trypanosoma brucei brucei infected in nonCNS acute HAT mouse model assessed as cure rate at 20 mg/kg, ip administered after 30 days; type: functional; details: route intraperitoneal
MDCK [8] = test: Permeability of the compound across MDCK cells expressing human MDR1; type: ADME, cell-based, Canis lupus familiaris; details: dog

IC50 [1] [µM] | half-life [5] [h] | Structure (SMILES) | IC50 (L929) [µM] | also measured
0.57 |  | COc1ccc(F)cc1C(=O)c1cnc(NC2CCN(S(C)(=O)=O)CC2)nc1 |  | AQ (MDCK [2]): 0.18; Activity [3]: 66%; Papp (MDR1 (P-gp)): 561 nm/s
0.34 | 0.533 | COc1ccccc1C(=O)c1cnc(NC2CCN(C(=O)Cc3ccccc3)CC2)nc1N | 20 | solubility [4]: 6 µM (≈ 2.67 µg/mL)
0.37 | 0.133 | COc1ccccc1C(=O)c1cnc(NC2CCN(S(=O)(=O)Cc3ccccc3)CC2)nc1N | 9.1 | solubility [4]: 2 µM (≈ 0.963 µg/mL)
0.045 | 1.6 | COc1ccccc1C(=O)c1cnc(NC2CCN(C(=O)Nc3ccccc3)CC2)nc1N | 7.5 | Activity [6]: 100%; solubility [4]: 25 µM (≈ 11.2 µg/mL); AQ (MDCK [2]): 0.63; Papp (MDR1 (P-gp)): 151 nm/s; Activity [7]: 100%; permeability (MDCK [8]): impermeable
0.088 | 1.6 | COc1ccccc1C(=O)c1cnc(NC2CCN(c3nc4ccccc4[nH]3)CC2)nc1N | 7.6 | solubility [4]: 13 µM (≈ 5.77 µg/mL)
1.53 |  | COc1ccccc1C(=O)c1cnc(NC2CCN(c3nc4ccccc4n3C)CC2)nc1N | > 22 | 
0.29 | 0.667 | COc1ccccc1C(=O)c1cnc(NC2CCN(c3nc4ccccc4s3)CC2)nc1N | 15 | 
3.1 |  | COc1ccccc1C(=O)c1cnc(NC2CCN(c3nccs3)CC2)nc1N | > 24 | 
0.13 |  | COc1ccccc1C(=O)c1cnc(NC2CCN(C(=O)Nc3ccccc3F)CC2)nc1N | 4.1 | 
0.043 | 2.82 | COc1ccccc1C(=O)c1cnc(NC2CCN(C(=O)Nc3cccc(F)c3)CC2)nc1N | 9.3 | solubility [4]: 13 µM (≈ 6.04 µg/mL)
0.065 | 2.53 | COc1ccccc1C(=O)c1cnc(NC2CCN(C(=O)Nc3ccc(F)cc3)CC2)nc1N | 4.6 | solubility [4]: 25 µM (≈ 11.6 µg/mL)
0.41 |  | COc1ccccc1C(=O)c1cnc(NC2CCN(C(=O)Nc3ccccc3C)CC2)nc1N | 10 | 
0.11 |  | COc1ccccc1C(=O)c1cnc(NC2CCN(C(=O)Nc3cccc(C)c3)CC2)nc1N | 7.1 | 
0.11 |  | COc1ccccc1C(=O)c1cnc(NC2CCN(C(=O)Nc3ccc(C)cc3)CC2)nc1N | 2.9 | 
0.19 |  | COc1ccccc1NC(=O)N1CCC(Nc2ncc(C(=O)c3ccccc3OC)c(N)n2)CC1 | 1.2 | 
0.29 |  | COc1cccc(NC(=O)N2CCC(Nc3ncc(C(=O)c4ccccc4OC)c(N)n3)CC2)c1 | 6.9 | 
0.36 |  | COc1ccc(NC(=O)N2CCC(Nc3ncc(C(=O)c4ccccc4OC)c(N)n3)CC2)cc1 | 3.4 | 
> 11 |  | COc1ccccc1C(=O)c1cnc(N[C@H]2CC[C@@H](C(=O)Nc3ccccc3)CC2)nc1N | > 22 | 
4.6 |  | COc1ccccc1C(=O)c1cnc(N[C@H]2CC[C@H](C(=O)Nc3ccccc3)CC2)nc1N | 4.6 | 

IC50 [1] [µM] | half-life [5] [h] | Structure (SMILES) | IC50 (L929) [µM] | also measured
4.5 |  | COc1ccccc1C(=O)c1cnc(NCCCNC(=O)Nc2ccccc2)nc1N | 11 | 
> 12 |  | COc1ccccc1C(=O)c1cnc(N2CCN(C(=O)Nc3ccccc3)CC2)nc1N | > 27 | 
5.5 |  | COc1ccccc1C(=O)c1cnc(NC2CCN(C(=O)Nc3ccccc3)C2)nc1N (stereo not drawn) | 13 | 
7.4 |  | CS(=O)(=O)N1CCC(Nc2ncc(C(=O)c3ccccc3)c(N)n2)CC1 |  | 
1.8 |  | Cc1ccccc1C(=O)c1cnc(NC2CCN(S(C)(=O)=O)CC2)nc1N |  | 
10 |  | COc1cccc(C(=O)c2cnc(NC3CCN(S(C)(=O)=O)CC3)nc2N)c1 |  | 
> 12 |  | COc1ccc(C(=O)c2cnc(NC3CCN(S(C)(=O)=O)CC3)nc2N)cc1 |  | 
0.03 |  | COc1ccc(F)cc1C(=O)c1cnc(NC2CCN(C(=O)Nc3ccccc3)CC2)nc1N |  | 
0.17 |  | CCc1ccccc1C(=O)c1cnc(NC2CCN(C(=O)Nc3ccccc3)CC2)nc1N |  | 
0.26 |  | CCOc1ccccc1C(=O)c1cnc(NC2CCN(C(=O)Nc3ccccc3)CC2)nc1N |  | 
0.33 | 2.8 | COc1ccccc1C(=O)c1cnc(NC2CCN(C(=O)Nc3ccccc3)CC2)nc1 |  | AQ (MDCK [2]): 0.14; Activity [3]: 33%; Papp (MDR1 (P-gp)): 398 nm/s
1.6 | 1.22 | COc1ccccc1C(=O)c1cnc(NC2CCN(C(=O)Nc3ccccc3)CC2)nc1C |  | 
0.31 | 0.75 | COc1ccccc1C(=O)c1cnc(NC2CCN(c3nc4ccccc4[nH]3)CC2)nc1 |  | AQ (MDCK [2]): 0.77; Papp (MDR1 (P-gp)): 114 nm/s
1.8 | 3.72 | COc1ccccc1C(=O)c1cnc(NC2CCN(S(C)(=O)=O)CC2)nc1 |  | 
> 12 | 7.23 | COc1ccccc1C(=O)c1cnc(NC2CCN(S(C)(=O)=O)CC2)nc1C |  | 
0.66 | > 5.83 | COc1ccccc1C(=O)c1cnc(NC2CCN(S(C)(=O)=O)CC2)nc1N | 11 | Activity [6]: 100%; solubility [4]: 50 µM (≈ 20.3 µg/mL); Activity [7]: 100%; permeability (MDCK [8]): impermeable
3.3 |  | COc1ccccc1C(=O)c1cnc(NC2CCN(C(C)=O)CC2)nc1N | > 27 | 
0.17 | > 5.83 | COc1ccc(F)cc1C(=O)c1cnc(NC2CCN(S(C)(=O)=O)CC2)nc1N |  | Activity [6]: 100%; AQ (MDCK [2]): 0.49; Papp (MDR1 (P-gp)): 272 nm/s; Activity [7]: 100%; permeability (MDCK [8]): impermeable
> 14 |  | COc1ccccc1C(=O)c1cnc(NC2CCNCC2)nc1N |  | 
